# According to patent US10912780B2, “Heterocyclic compounds useful as anti-bacterial agents and method for production thereof” (Bugworks Research, Inc., priority 2017, dated 2021):
# What was measured:
# [1] = test system: P. aeruginosa clinical strains; assay: Antibacterial susceptibility studies (MIC50 and MIC90) with clinical strains, CLSI guidelines; type: cell-based
# [2] = In vivo pharmacokinetic studies in rats, 1 hr intravenous infusion; settings: for AUC(0-t) / AUC(0-inf) / Cmax / Tmax / clearance / half-life / Vd: male, Sprague-Dawley, rat, iv; for Vd: male SD rats, 1 h IV infusion
# [3] = IV formulation solubility; type: physicochemical; settings: 10% L-ascorbic acid in MilliQ water (IV formulation), aqueous with cosolvent or surfactant or cyclodextrin, IV formulation: 10% L-Ascorbic acid, 1N NaOH for pH adjustment, read-out: Solubility in 10% L-ascorbic acid in fresh MilliQ water(v/v), Final
# Description: Procedure: Weighed appropriate amount of the Example 15 to be tested and dissolved in 1 ml of the 10% ascorbic acid solution. (Vortex for a few seconds if the compound doesn't dissolve instantly). Sonicated the compound solution at room temperature for 5 minutes using a bath sonicator to obtain a visually clear solution. […]
# [4] = biological target: E. coli topoisomerase IV (Escherichia coli, UniProt P0AFI2+P20083); assay: biochemical; settings: decatenation assay; read-out: E. coli Topo IV IC50
# Chain of E. coli topoisomerase IV (P20083 whole entry): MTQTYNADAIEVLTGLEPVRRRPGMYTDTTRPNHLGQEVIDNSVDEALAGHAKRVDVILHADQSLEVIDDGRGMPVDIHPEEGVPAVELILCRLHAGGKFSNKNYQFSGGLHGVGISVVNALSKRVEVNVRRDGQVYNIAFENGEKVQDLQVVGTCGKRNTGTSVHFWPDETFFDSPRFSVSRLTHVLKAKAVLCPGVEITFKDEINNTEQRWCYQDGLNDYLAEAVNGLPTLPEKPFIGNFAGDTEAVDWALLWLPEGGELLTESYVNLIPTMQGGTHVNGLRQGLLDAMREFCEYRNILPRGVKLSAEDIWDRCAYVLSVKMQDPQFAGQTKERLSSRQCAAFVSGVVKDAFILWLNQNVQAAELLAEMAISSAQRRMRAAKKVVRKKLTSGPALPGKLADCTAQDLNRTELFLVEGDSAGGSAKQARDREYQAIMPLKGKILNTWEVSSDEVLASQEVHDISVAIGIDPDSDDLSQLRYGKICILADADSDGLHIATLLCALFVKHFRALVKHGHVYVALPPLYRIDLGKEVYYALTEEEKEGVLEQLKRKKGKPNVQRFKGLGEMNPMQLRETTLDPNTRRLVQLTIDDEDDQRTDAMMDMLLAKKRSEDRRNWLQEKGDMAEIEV
# Chain of E. coli topoisomerase IV (P0AFI2 whole entry): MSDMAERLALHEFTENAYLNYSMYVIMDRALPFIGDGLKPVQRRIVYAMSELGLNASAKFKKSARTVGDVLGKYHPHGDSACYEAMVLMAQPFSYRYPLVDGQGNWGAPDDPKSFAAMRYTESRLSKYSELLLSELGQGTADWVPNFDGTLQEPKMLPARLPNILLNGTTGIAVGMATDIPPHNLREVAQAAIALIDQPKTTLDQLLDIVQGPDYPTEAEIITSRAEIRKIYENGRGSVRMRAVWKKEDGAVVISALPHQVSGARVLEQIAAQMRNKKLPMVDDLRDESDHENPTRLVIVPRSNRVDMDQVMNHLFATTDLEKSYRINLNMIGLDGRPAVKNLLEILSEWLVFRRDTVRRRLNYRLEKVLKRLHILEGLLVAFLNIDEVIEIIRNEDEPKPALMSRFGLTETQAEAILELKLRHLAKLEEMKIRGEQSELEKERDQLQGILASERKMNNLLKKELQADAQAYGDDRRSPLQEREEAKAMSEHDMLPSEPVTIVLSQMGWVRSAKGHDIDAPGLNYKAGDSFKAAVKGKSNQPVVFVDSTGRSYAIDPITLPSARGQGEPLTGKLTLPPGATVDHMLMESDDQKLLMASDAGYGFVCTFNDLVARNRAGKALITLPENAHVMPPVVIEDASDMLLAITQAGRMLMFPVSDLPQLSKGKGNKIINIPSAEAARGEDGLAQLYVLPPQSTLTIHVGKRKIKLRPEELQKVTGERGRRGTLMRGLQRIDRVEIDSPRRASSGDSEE
# [5] = test system: Acinetobacter baumannii ATCC 19606; assay: Minimum Inhibitory Concentration (MIC) in LB media; type: cell-based; settings: Acinetobacter baumannii, ATCC19606;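 further: twofold compound dilutions from DMSO stocks in LB broth microplates, overnight incubation at 37 °C, growth read by absorbance at 600 nm, with DMSO and sterility controls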
# Description: Bacterial cultures that are stored as glycerol stocks at −80° C. are sub cultured on LB agar plates to obtain isolated colonies. A single colony of each strain is cultured in LB broth. […] Test compounds are dissolved in dimethyl sulfoxide (DMSO) to a stock concentration of 4 mg/ml. A twofold dilution series of this DMSO stock is prepared in a 96 well V bottom microtitre plate from rows A to H. A 3 μL volume of these dilutions are transferred to a 96-well flat bottom microtitre assay plate. Controls to monitor the effects of DMSO and media sterility are included. Each well is inoculated with 150 μL of the above diluted culture. The plates are incubated at 37° C. overnight in a humidified incubator. The following morning, the plates are read using a Spectrophotometer at 600 nm wavelength.
# [6] = biological target: T1, human ether a go-go related gene (hERG) K+ channel (Homo sapiens, UniProt Q12809); assay: hERG inhibition assay, QPatch HTX automated electrophysiology; type: cell-based; settings: CHO cell line stably expressing hERG, whole-cell patch clamp, maximum test concentration 300 μM
# T1 construct: Chinese Hamster Ovary cell line stably expressing the full-length hERG potassium channel; expressed in transfected cells
# T1 sequence (Q12809 whole entry): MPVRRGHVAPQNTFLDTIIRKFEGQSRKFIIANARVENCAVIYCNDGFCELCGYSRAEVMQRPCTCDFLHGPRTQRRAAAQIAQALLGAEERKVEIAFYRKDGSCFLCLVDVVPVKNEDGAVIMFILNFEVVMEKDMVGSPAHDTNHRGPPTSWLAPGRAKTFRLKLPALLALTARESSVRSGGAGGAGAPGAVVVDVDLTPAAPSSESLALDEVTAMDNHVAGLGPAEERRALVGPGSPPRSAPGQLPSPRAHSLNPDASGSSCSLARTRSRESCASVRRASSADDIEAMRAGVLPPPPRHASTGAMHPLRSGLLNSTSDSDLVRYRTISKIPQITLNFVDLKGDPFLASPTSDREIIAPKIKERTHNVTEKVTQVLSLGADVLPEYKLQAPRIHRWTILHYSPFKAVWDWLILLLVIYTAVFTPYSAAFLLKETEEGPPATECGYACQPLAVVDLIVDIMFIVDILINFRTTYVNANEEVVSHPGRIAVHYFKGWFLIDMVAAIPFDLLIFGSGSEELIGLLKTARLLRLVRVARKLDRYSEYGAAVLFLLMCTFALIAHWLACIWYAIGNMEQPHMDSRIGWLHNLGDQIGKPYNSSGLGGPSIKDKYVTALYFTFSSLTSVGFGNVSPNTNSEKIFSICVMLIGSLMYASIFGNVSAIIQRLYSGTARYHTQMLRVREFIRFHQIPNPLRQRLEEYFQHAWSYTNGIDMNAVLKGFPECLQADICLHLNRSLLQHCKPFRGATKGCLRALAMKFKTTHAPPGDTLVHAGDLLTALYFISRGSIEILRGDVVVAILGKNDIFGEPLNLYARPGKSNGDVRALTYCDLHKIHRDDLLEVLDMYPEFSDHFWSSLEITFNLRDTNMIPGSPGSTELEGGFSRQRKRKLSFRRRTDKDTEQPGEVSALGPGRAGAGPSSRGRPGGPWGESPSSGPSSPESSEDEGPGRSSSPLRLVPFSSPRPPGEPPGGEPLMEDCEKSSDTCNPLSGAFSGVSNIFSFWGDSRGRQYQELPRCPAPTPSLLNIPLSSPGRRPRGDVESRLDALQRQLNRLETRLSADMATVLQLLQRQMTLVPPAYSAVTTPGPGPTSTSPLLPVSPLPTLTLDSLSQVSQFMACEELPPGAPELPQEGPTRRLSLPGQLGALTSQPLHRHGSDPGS
# Description: The compounds were tested for inhibition of the human ether a go-go related gene (hERG) K+ channel using QPatch HTX automated electrophysiology.
# Compounds were solubilised to 100 mM in DMSO before dilution in HBPS to 300 μM.
# Electrophysiological recordings were made from a Chinese Hamster Ovary cell line stably expressing the full-length hERG potassium channel. Single cell ionic currents were measured in whole-cell patch clamp configuration at room temperature (21-23° C.) using the QPatch HTX platform (Sophion). Intracellular solution contained (mM): 120 KF, 20 KCl, 10 EGTA, 10 HEPES and was buffered to pH 7.3. […] Cells were clamped at a holding potential of −80 mV. […] This sweep was repeated 10 times at 10 s intervals. hERG currents were measured from the tail step and referenced to the holding current. Compounds were then incubated for 2 minutes prior to a second measurement of ion channel current using an identical pulse train.
smiles,measurement,setting,value
"Cn1c(=O)ccc2ccc(F)c(CCNC[C@H]3CN(c4cnc5c(n4)NC(=O)CO5)C(=O)O3)c21 [Example 15, (S)-6-(5-(((2-(7-fluoro-1-methyl-2-oxo-1,2-dihydroquinolin-8-yl)ethyl)amino)methyl)-2-oxooxazolidin-3-yl)-2H-pyrazino[2,3-b][1,4]oxazin-3(4H)-one]",MIC ATCC27853,"[1]; P. aeruginosa reference strain ATCC27853, no unit in this line",0.25 µg/mL
same,MIC50,[1]; Pseudomonas aeruginosa,0.5 µg/mL
same,MIC90,[1]; Pseudomonas aeruginosa,1 µg/mL
same,Minimum,"[1]; lowest MIC among P. aeruginosa clinical strains (215 strains; Example 15: 176), no unit in this line",0.03
same,clearance (in words),"[2]; SD rats, 1 hr IV infusion",moderate
same,half life (in words),"[2]; SD rats, 1 hr IV infusion",short
same,volume of distribution (in words),"[2]; SD rats, 1 hr IV infusion",low
same,AUC and Cmax versus dose (in words),"[2]; SD rats, IV infusion at 5, 10, 30 & 100 mg/kg",Dose proportional increase
same,AUC(0-t),[2]; in vivo,104000 ± 7300 ng·h/mL
same,AUC(0-inf),"[2]; in vivo, 30 mg/kg",14700 ± 200 ng·h/mL
same,AUC(0-t),"[2]; in vivo, 30 mg/kg",14700 ± 200 ng·h/mL
same,Cmax,"[2]; in vivo, 30 mg/kg",15200 ± 2200 ng/mL
same,Tmax,"[2]; in vivo, 30 mg/kg",1 h
same,clearance,"[2]; in vivo, 30 mg/kg",34 mL/min/kg
same,half-life,"[2]; in vivo, 30 mg/kg",0.96 ± 0.02 h
same,Vd,"[2]; in vivo, 30 mg/kg, Vd",2.83 ± 0.09 L/kg
same,Vd,"[2]; in vivo, 30 mg/kg, Vss, 30 mg/kg",0.84 ± 0.06 L/kg
same,AUC(0-inf),"[2]; in vivo, 100 mg/kg",73700 ± 15300 ng·h/mL
same,AUC(0-t),"[2]; in vivo, 100 mg/kg",73700 ± 15300 ng·h/mL
same,Cmax,"[2]; in vivo, 100 mg/kg",62600 ± 6700 ng/mL
same,Tmax,"[2]; in vivo, 100 mg/kg",1 h
same,clearance,"[2]; in vivo, 100 mg/kg",23.3 mL/min/kg
same,half-life,"[2]; in vivo, 100 mg/kg",4.93 ± 0.5 h
same,Vd,"[2]; in vivo, 100 mg/kg, Vd",9.86 ± 1.68 L/kg
same,Vd,"[2]; in vivo, 100 mg/kg, Vss, 100 mg/kg",0.9 ± 0.05 L/kg
same,AUC(0-inf),"[2]; in vivo, 150 mg/kg",104000 ± 7300 ng·h/mL
same,Cmax,"[2]; in vivo, 150 mg/kg",101000 ± 146000 ng/mL
same,Tmax,"[2]; in vivo, 150 mg/kg",1 h
same,clearance,"[2]; in vivo, 150 mg/kg",24.2 mL/min/kg
same,half-life,"[2]; in vivo, 150 mg/kg",6.17 ± 0.42 h
same,Vd,"[2]; in vivo, 150 mg/kg, Vd",12.9 ± 1 L/kg
same,Vd,"[2]; in vivo, 150 mg/kg, Vss, 150 mg/kg",0.86 ± 0.04 L/kg
same,AUC(0-inf),"[2]; plasma, 5 mg/kg",1700 ± 50 ng·h/mL
same,AUC(0-t),"[2]; plasma, 5 mg/kg",1700 ± 50 ng·h/mL
same,Cmax,"[2]; plasma, 5 mg/kg",2400 ± 60 ng/mL
same,Tmax,"[2]; plasma, 5 mg/kg",0.77 ± 0.01 h
same,clearance,"[2]; plasma, 5 mg/kg",48.7 mL/min/kg
same,half-life,"[2]; plasma, 5 mg/kg",0.53 ± 0.03 h
same,Vd,"[2]; plasma, 5 mg/kg, Vd",2.21 ± 0.012 L/kg
same,Vd,"[2]; plasma, 5 mg/kg, Vss, 5 mg/kg",0.91 ± 0.05 L/kg
same,solubility at 5 min,[3],25 mg/mL
same,IC50,[4],0.01 µM
same,MIC,[5],0.06 µg/mL
same,IC50,[6],131 µM
